# Data published in US12496315B2, “Compositions for drug delivery and methods of use thereof” (Stellular Bio, Inc., priority 2018, dated 2025).
# Tests used:
# [1] = tested on: iPSC differentiation cultures on Laminin 521; experiment: WNT agonist addition during iPSC directed differentiation; format: cell-based, human; settings: for Stage 1 differentiation efficiency at day 6, CD31 and CD34 immunofluorescence: first 48 hours
# Text: WNT signaling is important during development. The GSK3 kinase inhibitors CHIR98014 and CHIR99021 act as WNT agonists. […] The control and CHIR98014 cultures were then transitioned to Stage 2, where the production and release of preMKs were tracked by immunofluorescence staining of CD41 and CD43.
# iPSCs = experiment: Soluble Laminin 521 addition in 3D iPSC differentiation, preMK yield; format: cell-based, human; settings: for Stage 2 preMK yields vs control: addition at Day −1 or Day 6
# Method: […] 24 hours later, the media was replaced with Stage 1 media and media exchanges were performed for 6 days. Media was then exchanged with Stage 2 media, with or without soluble Laminin 521. 24 hours later, daily half media exchanges were performed for up to 6 additional days. […] To determine if the effect of Laminin 521 could also be observed in agitated 3D cultures, iPSCs were dissociated as single cells and 1.5 million cells were seeded into each well of a 6-well ultra-low adherent plate containing StemFlex and the Rock inhibitor H1152 (control media), with or without soluble recombinant Laminin 521, and placed on an orbital shaker. 24 hours later, the media was replaced with Stage 1 media and media exchanges were performed for 6 days. Media was then exchanged with Stage 2 media, with or without soluble Laminin 521. 24 hours later, daily half media exchanges were performed for up to 6 additional days.
compound,measurement,setting,value
Cc1c[nH]c(-c2cnc(NCCNc3ccc(C#N)cn3)nc2-c2ccc(Cl)cc2Cl)n1 [CHIR99021],"Stage 1 differentiation efficiency at day 6, CD31 and CD34 immunofluorescence",[1]; 6 μM,dramatic increase
CHIR98014,"Stage 1 differentiation efficiency at day 6, CD31 and CD34 immunofluorescence",[1]; 0.6 μM,dramatic increase
same,"Stage 2 output, visual estimation of CD41+ cells","[1]; 0.6 μM, first 48 hours of Stage 1",higher output during Stage 2
Laminin 521: soluble recombinant Laminin 521,Stage 2 preMK yields vs control,iPSCs; 6-well ultra-low adherent plate on orbital shaker,increased the preMK yields
same,Stage 2 preMK yields vs control,iPSCs; 96-well U-bottom ultra-low adherent plate,increased the preMK yields
same,Laminin 521 effect on preMK yields,iPSCs; single cell passaged iPSCs aggregated in NutriStem,amplified
